{"source": "patent US20040180103A1", "about": "“Use of plants of the genus hypericum for facilitating the synchronization of a circadian rhythm” (priority 2001, published 2004)", "origin": "cited, not measured here", "test_system": "circadian rhythms in Siberian hamsters", "conditions": "5 h phase shift under daily administration", "data": [{"molecule": "COc1ccc2[nH]cc(CCNC(C)=O)c2c1", "note": "[melatonin]", "values": [{"measurement": "share of animals that adapt to the new light-dark cycle", "result": 71, "unit": "%"}]}]}
